Laboratory results reported in US6387945B2, “Lipoic acid analogs” (The Regents of the University of California, priority 2000, dated 2002).

Tests used:
[1] = system: Jurkat T cells; assay: Cells' ability to retain the reduced forms (DTNB efflux assay), Jurkat T cells; type: cell-based; settings: 0.1 mM LA or LA-PLUS, FIG. 6A
Method: (§1) Jurkat T cells or neuronal HT4 cells were incubated with LA (0.1 mM) or LA-PLUS (0.1 mM). The medium of the cells was replaced by phosphate buffer saline that contained 250 uM of 5,5′-dithiobis-(2-nitrobenzoic acid) (DTNB). The free thiols in the medium were trapped by the DTNB and absorption was measured at 420 nm at different time intervals.
(§2) The efflux of DHLA and DHLA-PLUS from cells was measured in the medium of cells in culture. The medium was composed of PBS and DTNB. […] An illustration of how LA-PLUS crosses biological barriers such as membranes (also showing retention of DHLA-PLUS inside the cell) is given in FIG. 7.

[2] = system: HT4 neuronal cells; assay: Cells' ability to retain the reduced forms (DTNB efflux assay), HT4 neuronal cells; type: cell-based, mouse; settings: 0.1 mM LA or LA-PLUS, FIG. 6B
Method: as §1, §2

[3] = system: HT4 cells; assay: Cell viability by LDH leakage after glutamate treatment; type: cell-based, mouse; settings: 10 mM glutamate, FIG. 2
Method: (§3) HT-4 cells (mouse hippocampal cell line) were purchased from American Type Culture Collection (ATCC, Bethesda, Md.). All experiments reported here were carried out with 10 mM glutamate.
(§4) HT4 cells were grown in DMEM supplemented with 10% serum and 100 U/ml penicillin-streptomycin at 37° C. in a humidified atmosphere containing 95% air/5% CO2.
(§5) All experiments were performed under the following protocol. Cells were allowed to grow to confluency, were trypsinized and subcultured in culture dishes at a concentration of 375,000 cells per millititer. The cells were continually cultured at 37° C. and were allowed to grow for 24 h, and then were exposed to glutamate treatment.
Cell viability was assayed using lactate dehydrogenase (LDH) leakage. After completion of the experiments, culture medium was removed from plates and centrifuged (500 g×5 min). The cells that detached from the monolayer following glutamate treatment were separated by centrifugation of the growth medium. […] LDH activity was measured from the samples spectophotometrically within two days of storage. Cell viability was determined using the following formula: viability=attached cell LDH activity/total LDH activity (medium+detached cell LDH activity+attached cell LDH activity).

[4] = system: ICAM-1; assay: PMA-induced ICAM-1 expression in ECV endothelial cells (flow cytometry); type: cell-based, human; settings: same concentration; 20 nM PMA, 24 h; FIG. 3
Method: EV304 (ECV), a spontaneously transformed immortal human endothelial cell line established from the vein of an apparently normal human umbilical cord, were obtained from ATCC (Bethesda, Md.). ECV cells were grown in medium 199 supplemented with 10% fetal calf serum, 100 U/ml penicillin and 100 μg/ml streptomycin. Cells were maintained in a standard culture incubator with humidified air containing 5% CO2 at 37° C. ECV monolayers were pretreated with LA or LA-PLUS for the time period indicated in the respective figure legend. Following the pretreatment, cells were activated using 20 nM PMA for 24 h. […] Appropriate isotypic controls were used for background fluorescence in the ICAM-1 assay. The fluorescence and light scattering properties (forward scatter, FS; side scatter, SS) of the cells were determined by using an EPICS-Elite (Coulter, Miami, Fla.) flow cytometer. Cells with FITC-conjugated antibodies were excited using a 488 nm argon ion laser and emission of FTIC was recorded at 525 nm. […] A logarithmic scale was used to measure both background and endothelial cell fluorescence. Background fluorescence was then subtracted from endothelial cell fluorescence, allowing linear comparisons of ICAM-1 expression between various samples.

[5] = system: HT4 cells; assay: Flow cytometric assay of fragmented DNA (glutamate-induced apoptosis); type: cell-based, mouse; settings: 10 mM glutamate, 24 h, FIG. 1
Method: as §3, §4, §5
HT4 cells were exposed to 10 mM glutamate for 24 h with and without antioxidants. […] The permeablized cells were kept in the dark for 6 h at 4° C. and their DNA integrity was analyzed using a flow cytometer (XL, Coulter, FL) with argon-ion laser (excitation 488 nm) and the 575 nm emission was recorded in fluorescence channel 1 (FL1). […]
The pathway of cell death was explored by staining the cells for 6 h following the glutamate treatment with a DNA-binding fluorescent dye, propidum iodide (PI) in cells permeabilised with a low concentration of detergent (Triton X-100 0.1% w/v). […] The cells were analyzed by flow cytometry.

[6] = system: L6 myoblasts; assay: Glucose uptake by L6 rat muscle derived cells; type: cell-based; settings: 1 h pretreatment; FIG. 4
Method: L6 cells were obtained from American Type Culture Collection (MD). Dulbecco's Phosphate Buffered Saline (DPBS) and Dulbecco's Modified Eagle Medium (DMEM) supplemented with high glucose, L-glutamine, pyridoxine hydrochloride and 110 mg/l sodium pyruvate were obtained from GIBCO BRL (Life Technologies NY). Fetal calf serum (FCS) and other reagents for the culture medium were obtained from the cell culture facility of the University of California-San Francisco. Undifferentiated mononucleated cells (myoblasts) were used in this study. For experiments, cells were seeded at a concentration of 0.2×10^6 cells per well in 6-well flat bottom tissue culture treated polystyrene plates (FALCON, Becton Dickinson Labware, NJ). Cultures were grown in DMEM supplemented with 10% FCS, 5 mM glutamine, 0.3% D-glucose, 50 U/ml of penicillin, and […] of streptomycin, in humidified air containing 5% CO2 at 37° C. Cell viability was greater than 97% as estimated by trypan blue exclusion or propidium iodide staining. The cells were split once every third day. All experiments were carried out on cells (6th to 12th passage) in the third day of the last passage. Cells seeded in 6-well plates were washed thrice with 1 ml transport suffer (140 mM NaCl, 5 mM KCl, 2.5 mM MgCl2, 1 mM CaCl2 in 20 mN tris-HEPES, pH 7.4) at room temperature. […] Radioactivity in each sample was read using a scintillation counter.

In the case of `O=C(O)CCCC[C@@H](S)CCS` (racemic) [DHLA, dihydrolipoate], the “efflux of reduced form from cells / retention inside cells” value [1] is reported as “effluxed from the cell faster than DHLA-PLUS” and the “efflux of reduced form from cells / retention inside cells” value [2] is reported as “effluxed from the cell faster than DHLA-PLUS”.

In the case of `O=C(O)CCCCC1CCSS1` (centres unmarked) [LA, 1,2-dithiolane-3-pentanoic acid, reference compound], the “protection of HT4 cells against glutamate cytotoxicity (viability)” value ([3]; 100 μM compound) is reported as “did not provide total protection”.

With `CN(C)CCNC(=O)CCCCC1CCSS1.Cl` (centres unmarked) [LA-PLUS, N,N-Dimethyl-N-2-Amidoethyl Lipoate (HCl)] the “down-regulation of PMA induced ICAM-1 expression compared to LA” value [4] was “much more effectively down-regulated”, the “glutamate-induced apoptotic process (cell shrinkage, DNA fragmentation)” value ([5]; 50 μM compound) was “completely blocked” and the “anti-apoptotic effect compared to LA” value [5] was “much more pronounced compared to the effect of LA”. The “efficiency in protecting HT4 cells compared to lipoic acid” value [3] was “more efficient in protecting the HT4 cells than lipoic acid” and the “enhancement of glucose uptake compared to LA” value [6] was “clearly more effective than LA”.
